The source made the active and inactive calls. No cut-off for these calls is given here.
What was measured:
[1] = target: T1, Calpain small subunit 1 (Sus scrofa) (UniProt P04574); experiment: Compound was tested for its inhibitory activity against porcine erythrocyte Calpain 1 up to a concentration of 1 mM; NA=Not active
T1 sequence (whole entry): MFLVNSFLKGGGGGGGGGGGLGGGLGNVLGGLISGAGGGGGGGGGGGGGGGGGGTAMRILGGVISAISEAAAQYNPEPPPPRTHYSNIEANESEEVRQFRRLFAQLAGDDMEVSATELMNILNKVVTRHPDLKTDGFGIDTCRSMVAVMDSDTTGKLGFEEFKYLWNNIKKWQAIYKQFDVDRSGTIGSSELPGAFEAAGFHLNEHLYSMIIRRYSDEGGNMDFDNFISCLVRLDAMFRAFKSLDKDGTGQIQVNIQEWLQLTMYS

[2] = target: T2, Calpain-1 catalytic subunit (Homo sapiens, UniProt P07384); experiment: Compound was tested for its inhibitory activity against calpain […] (SC488)
T2 sequence (P07384 whole entry): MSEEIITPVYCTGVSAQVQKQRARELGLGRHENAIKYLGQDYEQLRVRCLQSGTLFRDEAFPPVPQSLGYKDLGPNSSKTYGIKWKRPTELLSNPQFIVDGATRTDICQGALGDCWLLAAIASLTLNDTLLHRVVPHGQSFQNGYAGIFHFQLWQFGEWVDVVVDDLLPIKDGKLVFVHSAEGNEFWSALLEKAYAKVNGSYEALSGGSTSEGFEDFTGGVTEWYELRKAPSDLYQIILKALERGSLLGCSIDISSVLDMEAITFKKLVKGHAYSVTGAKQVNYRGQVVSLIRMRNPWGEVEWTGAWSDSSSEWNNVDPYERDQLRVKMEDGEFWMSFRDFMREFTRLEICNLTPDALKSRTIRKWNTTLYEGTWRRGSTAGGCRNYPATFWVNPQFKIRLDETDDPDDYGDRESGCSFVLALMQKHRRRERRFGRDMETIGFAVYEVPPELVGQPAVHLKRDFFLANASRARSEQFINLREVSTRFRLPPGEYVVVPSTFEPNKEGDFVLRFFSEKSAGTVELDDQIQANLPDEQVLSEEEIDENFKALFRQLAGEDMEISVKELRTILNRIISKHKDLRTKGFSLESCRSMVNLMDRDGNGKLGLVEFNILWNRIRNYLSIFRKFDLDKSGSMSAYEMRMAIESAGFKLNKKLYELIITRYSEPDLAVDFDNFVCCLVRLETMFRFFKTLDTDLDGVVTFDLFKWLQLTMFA

[3] = target: T2, Calpain-1 catalytic subunit; experiment: Compound was tested for its inhibitory activity against calpain […]

## CN1C(=O)[C@H](Cc2ccccc2)N(C)C(=O)[C@H]1Cc1ccccc1
[1]
  Activity: inactive

## CN1C(=O)[C@H](Cc2ccc(O)cc2)N(C)C(=O)[C@@H]1Cc1ccc(O)cc1
[2]
  IC50: 800 nM
[1]
  Activity: inactive

## CN1C(=O)[C@H](Cc2ccccc2)N(C)C(=O)[C@@H]1Cc1ccccc1
[1]
  Activity: inactive

## CC(C)c1ncc(Cc2ccccc2)[nH]c1=O
[3]
  IC50: 1200 nM

Source: ChEMBL document CHEMBL1133981, “Synthesis of a reported calpain inhibitor isolated from Streptomyces griseus” (Bioorg Med Chem Lett, 2001)
